# Test results reported in PubChem BioAssay AID330 (DTP/NCI, 2004).
# “And” between values parts separate entries of the source, which are not always exact repeats. Equal values may be shown once. Toxic doses and inconclusive results are not listed.
# Test system: P388 leukemia ip, CD2F1 mice, survival T/C
# Assay: NCI In Vivo Anticancer Drug Screen. Data for tumor model P388 Leukemia (intraperitoneal) in CD2F1 (CDF1) mice
# Details: endpoint: median survival time, higher = longer survival
# Summary of the method: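 Mice carrying the transplanted tumor received test compound or vehicle. Survival was recorded in each group, and the value is the treated-group measurement divided by that of the vehicle-treated control group.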
smiles,measurement,setting,value
COc1cccc2c1C(=O)c1c(O)c3c(c(O)c1C2=O)C[C@@](O)(C(C)=O)C[C@@H]3OC1CC(N(CCO)Cc2ccccc2)C(O)C(C)O1 (some centres not stated),T/C,"dose: 4.0 mg/kg/injection, schedule: Q04DX003 (ip), vehicle: water",105 % of control
same,T/C,"dose: 8.0 mg/kg/injection, schedule: Q04DX003 (ip), vehicle: water",113 % of control
same,T/C,"dose: 12.5 mg/kg/injection, schedule: Q04DX003 (ip), vehicle: water",114 % of control
same,T/C,"dose: 32.0 mg/kg/injection, schedule: Q04DX003 (ip), vehicle: water",155 % of control
same,T/C,"dose: 50.0 mg/kg/injection, schedule: Q04DX003 (ip), vehicle: water",172 % of control
same,T/C,"dose: 64.0 mg/kg/injection, schedule: Q04DX003 (ip), vehicle: water",179 % of control
same,T/C,"dose: 100.0 mg/kg/injection, schedule: Q04DX003 (ip), vehicle: water",223 % of control
same,T/C,"dose: 128.0 mg/kg/injection, schedule: Q04DX003 (ip), vehicle: water",240 % of control
same,T/C,"dose: 200.0 mg/kg/injection, schedule: Q04DX003 (ip), vehicle: water",124 % of control
C=C1CC2(OC1=O)C1CC3CC(C1)CC2C3 (configuration not stated),T/C,"dose: 100.0 mg/kg/injection, schedule: Q04DX002 (ip), vehicle: saline",99 % of control
same,T/C,"dose: 200.0 mg/kg/injection, schedule: Q04DX002 (ip), vehicle: saline",98 % of control
same,T/C,"dose: 400.0 mg/kg/injection, schedule: Q04DX002 (ip), vehicle: saline",99 % of control
CCOC(=O)C1CC(C)CC1=O (configuration not stated),T/C,"dose: 50.0 mg/kg/injection, schedule: Q01DX009 (ip), vehicle: saline",96 % of control
same,T/C,"dose: 100.0 mg/kg/injection, schedule: Q01DX009 (ip), vehicle: saline",98 % of control
same,T/C,"dose: 200.0 mg/kg/injection, schedule: Q01DX009 (ip), vehicle: saline",102 % of control
CC(=O)O[C@H]1C(=O)[C@]2(C)[C@@H](OC(C)=O)CC3OC[C@@]3(OC(C)=O)[C@H]2[C@H](OC(=O)c2ccccc2)[C@]2(O)C[C@H](OC(=O)[C@H](O)[C@@H](NC(=O)c3ccccc3)c3ccccc3)C(C)=C1C2(C)C (some centres not stated),T/C,"dose: 2.5 mg/kg/injection, schedule: Q01DX005 (ip), vehicle: DMSO",100 % of control
same,T/C,"dose: 5.0 mg/kg/injection, schedule: Q01DX005 (ip), vehicle: DMSO",111 % of control
CSC1=NSC(c2ccccc2)=C(c2ccccc2)S1,T/C,"dose: 60.0 mg/kg/injection, schedule: Q01DX005 (ip), vehicle: saline with Tween-80",111 % of control
same,T/C,"dose: 120.0 mg/kg/injection, schedule: Q01DX005 (ip), vehicle: saline with Tween-80",122 % of control
same,T/C,"dose: 240.0 mg/kg/injection, schedule: Q01DX005 (ip), vehicle: saline with Tween-80",119 % of control
CC(C)(O)c1cc(=O)n(-c2ccccc2)[nH]1,T/C,"dose: 50.0 mg/kg/injection, schedule: Q01DX005 (ip), vehicle: Klucel (hydroxypropylcellulose) (HPC)",102 % of control
same,T/C,"dose: 100.0 mg/kg/injection, schedule: Q01DX005 (ip), vehicle: Klucel (hydroxypropylcellulose) (HPC)",101 % of control
same,T/C,"dose: 200.0 mg/kg/injection, schedule: Q01DX005 (ip), vehicle: Klucel (hydroxypropylcellulose) (HPC)",105 % of control
O=C(Nc1cccc(C(F)(F)F)c1)Nc1nccs1,T/C,"dose: 25.0 mg/kg/injection, schedule: Q01DX009 (ip), vehicle: Klucel (hydroxypropylcellulose) (HPC)",100 % of control
same,T/C,"dose: 50.0 mg/kg/injection, schedule: Q01DX009 (ip), vehicle: Klucel (hydroxypropylcellulose) (HPC)",98 % of control
same,T/C,"dose: 100.0 mg/kg/injection, schedule: Q01DX009 (ip), vehicle: Klucel (hydroxypropylcellulose) (HPC)",97 % of control
COC1=CC2(CCN(C)C(=O)C(F)(F)F)C(=CC1=O)CCc1ccc(OC)c(O)c12 (configuration not stated),T/C,"dose: 100.0 mg/kg/injection, schedule: Q04DX002 (ip), vehicle: saline with Tween-80",101 % of control
same,T/C,"dose: 200.0 mg/kg/injection, schedule: Q04DX002 (ip), vehicle: saline with Tween-80",100 % of control
same,T/C,"dose: 400.0 mg/kg/injection, schedule: Q04DX002 (ip), vehicle: saline with Tween-80",93 % of control
COCCn1c(=N)c(C(=O)OC)nc2c3ccccc3ccc21,T/C,"dose: 50.0 mg/kg/injection, schedule: Q01DX005 (ip), vehicle: saline with Tween-80",104 % of control
same,T/C,"dose: 100.0 mg/kg/injection, schedule: Q01DX005 (ip), vehicle: saline with Tween-80",107 % of control
same,T/C,"dose: 200.0 mg/kg/injection, schedule: Q01DX005 (ip), vehicle: saline with Tween-80",101 % of control
C/C=C/C(C)C1OC1(C)C(O)C1COC(=O)C(O)C(OC)C(C)C(=O)C(C)C(O)/C(C)=C/C(C)C(=O)CC(O)C(C)C1=O (configuration not stated),T/C,"dose: 0.39 micrograms/kg/injection, schedule: Q01DX005 (ip), vehicle: saline",106 % of control
same,T/C,"dose: 0.78 micrograms/kg/injection, schedule: Q01DX005 (ip), vehicle: saline",119 % of control
same,T/C,"dose: 1.56 micrograms/kg/injection, schedule: Q01DX005 (ip), vehicle: saline",123 % of control
same,T/C,"dose: 3.12 micrograms/kg/injection, schedule: Q01DX005 (ip), vehicle: saline",119 % of control
same,T/C,"dose: 6.25 micrograms/kg/injection, schedule: Q01DX005 (ip), vehicle: saline",113 % of control and 123 % of control
OCC(O)C(O)Cc1cnc(C(O)C(O)C(O)CO)cn1 (configuration not stated),T/C,"dose: 50.0 mg/kg/injection, schedule: Q01DX009 (ip), vehicle: other",93 % of control
same,T/C,"dose: 100.0 mg/kg/injection, schedule: Q01DX009 (ip), vehicle: other",96 % of control
same,T/C,"dose: 200.0 mg/kg/injection, schedule: Q01DX009 (ip), vehicle: other",102 % of control
same,T/C,"dose: 400.0 mg/kg/injection, schedule: Q01DX009 (ip), vehicle: other",108 % of control
same,T/C,"dose: 800.0 mg/kg/injection, schedule: Q01DX009 (ip), vehicle: other",102 % of control
